Holding throughout (assay type): cell-based
The subject of data set [1] is MDR strains of Mycobacterium tuberculosis. Kind of data set: Whole-cell anti-TB MIC, Resazurin Microplate Assay (REMA). The following applies: for MIC: Mycobacterium tuberculosis, read-out: Level of Activity (MIC), MDR; for Level of Activity (MIC), MDR: MDR MTB strains, REMA.
A short description of the next data set: MTT cytotoxicity assay. The following applies: mean ± SD of three replicates. As to the method:
(§1) Fibroblast cells were cultured in Iscove’s Modified Dulbecco’s Medium (Euro Clone, Italy) as recommended by ATCC. The media was supplemented with 10% heat-inactivated fetal bovine serum (FBS) (Ebsdorfergrund, Germany), 1% of 2 mM L-glutamine, 100 U/mL penicillin, and 100 µg/mL streptomycin. According to the cells’ growth profile, fibroblast-seeding density was 1 × 10^5 cell/well. Cell viability was determined by trypan blue exclusion using a hemocytometer.
(§2) The MTT colorimetric assay was used to assess the effect of the synthesized compounds on the viability of the fibroblast cell lines. […] A volume of 10 mL of the culture media was added, and the cell suspension was centrifuged at 1000 rpm for 10 min. The pellets were resuspended in a 10 mL medium to make a single-cell suspension. […] The cell suspension was diluted to give the optimal seeding density, and 100 µL of the cell suspension was plated in a 96-well plate. Cells were cultured at 37 °C in a humidified atmosphere of 5% CO2. After 24 h incubation, the cells were treated with 100 µM of the synthesized compounds (diluted in culture media to yield the required concentration) and then incubated for 72 h. At the end of the exposure time, 15 µL of MTT stock solution (5 mg/mL in sterile PBS, pH 7.4) (Promega, Madison, WI, USA) was added to each well and incubated for 3 h. After that, 100 µL of solubilizing stop solution was added to each well to solubilize the dark violet formazan crystals. The optical densities at 570 nm were then measured using a micro-plate reader (Biotek, Winooski, VT, USA), and the percentage of cell viability was calculated with respect to a control corresponding to untreated cells.

Data set [2] relates to Mycobacterium tuberculosis H37Rv (ATCC 25177). Description: Whole-cell anti-TB MIC, Resazurin Microplate Assay (REMA). The following applies: MTB H37Rv; for MIC: Mycobacterium tuberculosis, REMA, read-out: Level of Activity (MIC), Susceptible (H37Rv).
The test system of data set [3] is normal human skin fibroblast cells (CCD-1064SK). Description: MTT cytotoxicity assay. The following applies: 72 h, mean ± SD of three replicates. The procedure:
as §1, §2

The mark [4] stands for this setting: human, CCD-1064SK normal human skin fibroblast cells.

Values after ≈ are worked out from the molar mass of the structure shown. Values joined by “and” are separate entries in the source; they are usually repeats but may differ in a detail not shown here. Identical values can stand only once.

On to `COc1ccc(C2NC(=O)c3ccccc3N2)cc1` (centres unmarked) [Compound 3a], for which the MIC in data set [1] is > 128 µg/mL; in data set [2] it was 64 µg/mL (≈ 252 µM). Besides, the cytotoxicity at 72 h, 100 µM in “MTT cytotoxicity assay” (normal human fibroblast cells) was 28.8 ± 0.6%.

Regarding `N#Cc1ccc(C2NC(=O)c3ccccc3N2)cc1` (centres unmarked) [Compound 3b], the “Level of Activity (MIC), MDR” value in data set [1] is listed as “No activity”. Also, the cytotoxicity at 72 h, 100 µM in “MTT cytotoxicity assay” (setting [4]) came to 19.5 ± 5%. For the same compound, the MIC in data set [2] was > 64 µg/mL.

For `O=C1NC(c2cccc(O)c2)Nc2ccccc21` (centres unmarked) [Compound 3c], the values for the MIC in data set [1] and in data set [2] were > 32 µg/mL and 8 µg/mL (≈ 33.3 µM), respectively. In “MTT cytotoxicity assay” (setting [4]), this compound showed a cytotoxicity at 72 h, 100 µM of 58.5 ± 1.1%.

For the compound `O=C1NC(c2ccc(OC(F)(F)F)cc2)Nc2ccccc21` (centres unmarked) [Compound 3d], in data set [1], the “Level of Activity (MIC), MDR” value was “No activity”. In the data set “MTT cytotoxicity assay” (setting [4]), the cytotoxicity at 72 h, 100 µM amounted to 47.6 ± 1.6%. The MIC in data set [2] is > 64 µg/mL.

Turning to `O=C1NC(c2cccc(I)c2)Nc2ccccc21` (centres unmarked) [Compound 3e], the “Level of Activity (MIC), MDR” value in data set [1] is recorded as “No activity”. The compound further gave a cytotoxicity at 72 h, 100 µM in the data set “MTT cytotoxicity assay” (setting [4]) of 72 ± 8.3%. In addition, in data set [2], the MIC was determined as 128 µg/mL (≈ 366 µM).

`O=C1NC(c2ccc(Cl)cc2)Nc2ccccc21` (centres unmarked) [Compound 3f]: the “Level of Activity (MIC), MDR” value in data set [1] is reported as “No activity”. This compound also showed a cytotoxicity at 72 h, 100 µM in the data set “MTT cytotoxicity assay” (setting [4]) of 57.6 ± 3.7%. Moreover, the MIC in data set [2] is > 128 µg/mL.

Regarding `COc1ccc(C2NC(=O)c3ccccc3N2)cc1OC` (centres unmarked) [Compound 3g], the “Level of Activity (MIC), MDR” value in data set [1] is listed as “No activity”. Also, the cytotoxicity at 72 h, 100 µM in “MTT cytotoxicity assay” (setting [4]) turned out to be 32.5 ± 11%. Also, the MIC in data set [2] worked out at 64 µg/mL (≈ 225 µM).

On to `CN(C)c1ccc(C2NC(=O)c3ccccc3N2)cc1` (centres unmarked) [Compound 3h], for which the “Level of Activity (MIC), MDR” value in data set [1] is on record as “No activity”. The cytotoxicity at 72 h, 100 µM in “MTT cytotoxicity assay” (setting [4]) is 54.6 ± 2.8%. For the same compound, the MIC in data set [2] is > 128 µg/mL.

`O=C1NC(c2cccc([N+](=O)[O-])c2)Nc2ccccc21` (centres unmarked) [Compound 3i]: in data set [1], the “Level of Activity (MIC), MDR” value is listed as “No activity”. Besides, the cytotoxicity at 72 h, 100 µM in the data set “MTT cytotoxicity assay” (setting [4]) is 24.1 ± 3.9%. For the same compound, the MIC in data set [2] was > 64 µg/mL.

In the case of `O=C1NC(c2ccc(F)cc2)Nc2ccccc21` (centres unmarked) [Compound 3j], the “Level of Activity (MIC), MDR” value in data set [1] is listed as “No activity”. This compound returned a cytotoxicity at 72 h, 100 µM in the data set “MTT cytotoxicity assay” (setting [4]) of 44.1 ± 11.5%. In addition, the MIC in data set [2] is > 64 µg/mL.

Consider `O=C1NC(c2c[nH]cn2)Nc2ccccc21` (centres unmarked) [Compound 3k], for which the MIC in data set [1] was 16 µg/mL (≈ 74.7 µM). In “MTT cytotoxicity assay” (normal human fibroblast cells), this compound showed a cytotoxicity at 72 h, 100 µM of 19.2 ± 4.9%. Further, in data set [2], the MIC against susceptible H37Rv M. tuberculosis strain was 4 µg/mL (≈ 18.7 µM) and the MIC is 4 µg/mL (≈ 18.7 µM).

Turning to `O=C1NC(c2cc(Br)ccc2F)Nc2ccccc21` (centres unmarked) [Compound 3l, 2-(5-bromo-2-fluorophenyl)-2,3-dihydroquinazolin-4(1H)-one], the MIC is > 64 µg/mL in data set [1] and 2 µg/mL (≈ 6.23 µM) in data set [2]. For the same compound, in data set [3], the “Cytotoxicity (%) at 100 µM” value was 36.3 ± 4.2%. Also, the cytotoxicity at 72 h, 100 µM in the data set “MTT cytotoxicity assay” (setting [4]) was determined as 36%. In data set [2], this compound came in with an MIC against susceptible H37Rv M. tuberculosis strain of 2 µg/mL (≈ 6.23 µM).

For `COc1cc([N+](=O)[O-])ccc1C1NC(=O)c2ccccc2N1` (centres unmarked) [Compound 3m], the MIC in data set [1] is > 64 µg/mL. Further, the “Cytotoxicity (%) at 100 µM” value in data set [3] is 30% and 30.9 ± 8.8%. In “MTT cytotoxicity assay” (setting [4]), the cytotoxicity at 72 h, 100 µM was determined as 31%. For the same compound, in data set [2], the MIC against susceptible H37Rv M. tuberculosis strain worked out at 2 µg/mL (≈ 6.68 µM) and the MIC was determined as 2 µg/mL (≈ 6.68 µM).

For the origin of these results see publication PMC9311641, “Antitubercular, Cytotoxicity, and Computational Target Validation of Dihydroquinazolinone Derivatives” (Antibiotics, 2022).
